Results: article PMC9530963, “A cathelicidin antimicrobial peptide from Hydrophis cyanocinctus inhibits Zika virus infection by downregulating expression of a viral entry factor” (The Journal of Biological Chemistry, 2022)

How the values were obtained:
ZIKV [1] = assay: Susceptibility of A549 cells to ZIKV (peptide pretreatment); format: cell-based, ZIKV strain PRVABC59; conditions: 1.25, 2.5, and 5 μM, 2 h before ZIKV MOI = 1; 24 h; Western blot
Method: Figure 4 Hc-CATH downregulates AXL in A549 cell.A, schematic diagram of B and C. B, A549 cells were seeded in 24-well plates (5 × 10^4 cells/well) and cultured in DMEM containing 2% FBS. Hc-CATH (1.25, 2.5, and 5 μM) or same volume of PBS (peptide solvent) was added to cells and incubated at 37 °C for 24 h. The level of AXL was tested by Western blot. C, A549 cells were seeded in 8-well cover slip chambers (5 × 10^4 cells/well) and cultured in DMEM containing 2% FBS. Hc-CATH (1.25, 2.5, and 5 μM) or PBS was added to cells and incubated at 37 °C for 24 h. The level of AXL was tested by immunofluorescence staining. The scale bar represents 50 μm. D, schematic diagram of E and G. E and G, A549 cells were seeded in 24-well plates (5 × 10^4 cells/well) and cultured in DMEM containing 2% FBS. Hc-CATH (1.25, 2.5, and 5 μM) or PBS was added to cells and incubated at 37 °C for 2 h. Cells were washed with PBS and incubated with ZIKV (MOI = 1). After incubation at 37 °C for 2 h, cells were washed with PBS and cultured in DMEM containing 2% FBS.
Vero, A549, or U251 cells were incubated with peptide or PBS at 37 °C for 2 h. […]
The effect of Hc-CATH on AXL was further confirmed in A549 and U251 cells. A549 or U251 cells were incubated with Hc-CATH (1.25, 2.5, and 5 μM) or PBS at 37 °C for 24 h, and the level of AXL was detected by WB and IF, respectively. […]

COX-2 = COX-2 protein level in A549 cells (Western blot); format: cell-based, Homo sapiens; conditions: A549 cells, 1.25, 2.5, or 5 μM, 24 h
Method: Figure 6 Hc-CATH downregulates AXL via inhibiting COX-2/PGE2/AC/PKA pathway.A, effect of Hc-CATH on COX-2 protein level. A549 cells were incubated with Hc-CATH (1.25, 2.5, or 5 μM) or PBS (solvent of Hc-CATH) at 37 °C for 24 h, COX-2 protein level was examined by Western blot (upper panel) and analyzed by ImageJ (lower panel). B, effect of Hc-CATH on the enzymatic activity of COX-2. Hc-CATH (1.25, 2.5, 5, and 10 μM) or PBS was incubated with COX-2. After incubation at 37 °C for 10 min, the enzymatic activity of COX-2 was detected by enzyme activity inhibitor screening kit. Celecoxib (COX-2 inhibitor, 100 nM) was used as positive control. C, effect of Hc-CATH on PGE2 production. A549 cells were incubated with Hc-CATH (5 μM) at 37 °C. After incubation for 24 h, the level of PGE2 in the cell supernatant was detected by ELISA. D and E, effect of AC (D) and PKA (E) on Hc-CATH-induced AXL downregulation. A549 cells were incubated with forskolin (FSK, agonist of AC, 10 μM) or H89 (inhibitor of PKA, 5 μM) at 37 °C. After incubation for 1 h, the culture media were removed, cells were washed three times with PBS, and fresh culture media were added to cells in the presence of Hc-CATH (5 μM). After incubation for 24 h, AXL protein level was examined by Western blot (upper panel of D and E) and analyzed by ImageJ (lower panel of D and E). ns, not significant, ∗∗p < 0.01, and ∗∗∗p < 0.001. […]

ZIKV [2] = assay: Binding of Hc-CATH to ZIKV (ELISA); set-up: species or system ZIKV strain PRVABC59; conditions: plates coated with 0.25 μM peptide, 1 × 10^6 PFU ZIKV, absorbance at 450 nm
Method: Figure 8 Hc-CATH directly inactivates ZIKV particles by disrupting viral membrane.A, schematic diagram of B–G (Hc-CATH-Vero-pre). B–G, direct inactivation of ZIKV by Hc-CATH. ZIKVs (MOI = 1) were incubated with Hc-CATH (2.5 μM), AC5 (2.5 μM), LL-37 (2.5 μM), or PBS (peptide solvent) at 37 °C for 2 h, and then the ZIKV–PBS mixture and ZIKV–peptide mixture were centrifugated at 100,000g for 70 min. The pellets were washed with PBS and centrifugated at 100,000g for 70 min again. The pellets were resuspended in PBS, added to Vero cells, and incubated for 2 h. Cells were washed with PBS and cultured in fresh DMEM containing 2% FBS. After culture at 37 °C for 48 h, the intracellular ZIKV RNA (B), NS3 protein (C and D), E protein level (E, the scale bar represents 50 μm), and extracellular ZIKV titer (F and G) were tested by qPCR, Western blot, immunofluorescence staining, and plaque-forming assay, respectively. H, binding of Hc-CATH to ZIKV. High-affinity binding plates were coated with 0.25 μM of Hc-CATH, BSA, AC5, or LL-37. Then, 1 × 10^6 PFU of ZIKV was added and incubated. […] Absorbance at 450 nm was measured after reactions were stopped using 0.5 M sulfuric acid. […] After the residual RNase was inactivated, the undigested genomic RNA in the intact ZIKV particles was extracted and quantified by testing the genes of PrM, E, and Cap proteins, respectively. ∗∗p < 0.01 and ∗∗∗p < 0.001. […]

KFFKRLLKSVRRAVKKFRKKPRLIGLSTLL [Hc-CATH, cathelicidin antimicrobial peptide identified from the sea snake Hydrophis cyanocinctus]
susceptibility of A549 cells to ZIKV (NS3 protein) (ZIKV [1]): decreased the susceptibility
expression of COX-2 (COX-2): did not influence the expression of COX-2
binding to ZIKV (ZIKV [2]): stronger binding affinity with ZIKV as compared with bovine serum albumin
